Measurements from patent US20030206936A1, “Cosmetic composition and method of treating skin and hair” (Unilever Home & Personal Care USA, Division of Conopco, Inc., priority 2002, published 2003).

Legend:
Type in all cases: cell-based
decorin = experiment: Dot blot assay for decorin synthesis in human dermal fibroblasts; conditions: primary human foreskin fibroblasts, 24 hours, relative to vehicle control; effect similar to retinoic acid
Procedure: Procedure For Measuring Procollagen-I and Decorin Synthesis in Human Dermal Fibroblasts
Preparation of Dermal Fibroblast Conditioned Medium
Primary human foreskin fibroblasts at passage 2 (P2) were seeded into 12-well plates at 10000 cells/cm^2 and maintained for 24 hours in an atmosphere of 5% carbon dioxide and 4% oxygen in Dulbeccos Modified Eagles Medium (DMEM) supplemented with 10% foetal calf serum. After this time the cells were washed with serum free DMEM and then incubated in fresh serum free DMEM for a further 60 hours. The fibroblast monolayers were then washed again with serum free DMEM. […] This fibroblast conditioned medium was either analyzed immediately or snap frozen in liquid nitrogen and stored at −70° C. for future analysis. The cells were then counted and data from the dot-blot analysis subsequently standardized to cell number. […]
Following this the Immobilon strips were again washed with TBS/Tween 20 (3×5 minutes) before being allowed to dry in air at room temperature. […] Dot intensity was assessed by computer-assisted image TM analysis using the quantification tools in ImageQuant™, standardized to cell number and the effects of various test reagents on decorin and procollagen-I synthesis were determined relative to a vehicle treated control value of 100 arbitrary units.

PPARα = target: T1, PPARα (Homo sapiens, UniProt Q07869); experiment: Reporter gene assay (PPARα) in transfected Cos-7 cells; conditions: 10 μM, 24 hours
T1 construct: expressed in transfected cells; host or cells: Cos-7 cells (ECACC No. 87021302), transient transfection with LipofectAMINE
T1 sequence (Q07869 1-468): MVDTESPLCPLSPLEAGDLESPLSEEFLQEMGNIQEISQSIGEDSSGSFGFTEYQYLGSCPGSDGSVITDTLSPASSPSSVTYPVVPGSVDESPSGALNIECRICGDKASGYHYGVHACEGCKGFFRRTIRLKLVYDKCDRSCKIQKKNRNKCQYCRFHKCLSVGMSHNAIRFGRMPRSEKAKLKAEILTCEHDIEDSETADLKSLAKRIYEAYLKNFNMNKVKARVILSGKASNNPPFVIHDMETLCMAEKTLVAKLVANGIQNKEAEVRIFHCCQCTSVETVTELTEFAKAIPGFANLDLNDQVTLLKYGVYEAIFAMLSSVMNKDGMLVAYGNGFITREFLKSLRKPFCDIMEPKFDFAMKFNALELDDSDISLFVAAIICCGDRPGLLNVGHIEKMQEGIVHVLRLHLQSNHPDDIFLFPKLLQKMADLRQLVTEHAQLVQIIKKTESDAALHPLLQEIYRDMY
Procedure: The following assay protocol is responsive to ligands of PPARα or retinoid X receptor.
Reporter Gene Assay Protocol
Cos-7 cells (ECACC No. 87021302) were routinely grown in DMEM with 10% FCS (foetal calf serum) at 37° C., 5% CO2 to 80% confluency. Transient transfections were performed as described by the manufacturers (GibcoBRL). Briefly, cells were plated out in 24 well plates at 50,000 cells per well and incubated overnight in DMEM with 10% FCS at 37° C., 5% CO2,. Cells were then transfected using the LipofectAMINE reagent. For each well, 0.5 μg of DNA mix (for “control” cells pPPRE3TK-luc 0.40 μg; pRL-TK 0.04 μg; pcDNA3.1(−) 0.03 μg; pRSV 0.03 μg; for “plus RXRα” cells pPPRE3TK-luc 0.40 μg; pRL-TK 0.04 μg; pcDNA3.1(−) 0.03 μg; pRSV/RXRα 0.03 μg; for “plus PPARα” cells pPPRE3TK-luc0.40 μg; pRL-TK 0.04 μg pcDNA3.1(−)/PPARα 0.03 μg pRSV 0.03 μg) in 25 μl of DMEM was incubated with 1 μl LipofectAMINE, also in 25 μl of DMEM for 45 minutes.
The mixture was then made up to 250 μl per well and added to the cells, which had been washed with 1 ml of DMEM. Cells were then incubated for 5 hours at 37° C., 5% CO2, and 250 μl DMEM with 20% SBCS (charcoal stripped bovine calf serum (Sigma)) added. Cells were allowed to recover for 18 hours at 37° C., 5% CO2 before being treated. […]

[1] = test system: Corynebacterium A NCIMB 40928; experiment: In vitro model of fatty acid catabolism by corynebacteria A (TVC, glucose and pentadecanoic acid utilisation); conditions: 24 h
Procedure: An in vitro model system, reproducing fatty acid catabolism by corynebacteria A, consisted of 250 ml baffled shake flasks, to which were added 30 ml semi-synthetic medium (see below) supplemented with fatty acid substrate (2.0 mg/ml pentadecanoic acid) and non-fatty acid substrate (0.5 mg/ml glucose). This system was employed to evaluate sargahydroquinoic acid as a potential deodorant active: to each flask (other than the control) was added and specific dose of sargahydroquinoic acid (isolated from Kombo nut oil at >90% purity), from a 25 g/l stock emulsion in semi-synthetic medium supplemented with 5.0 mg/ml Gum Arabic (formed by ultra-homogenisation at 24000 rpm for 1 min) Flasks were inoculated with fresh bacterial biomass (Corynebacterium A NCIMB 40928), pre-grown for 24 h in TSBT (see below), to give starting optical densities (A5 9 0) of ˜1.0. Following inoculation, flasks were incubated aerobically at 35°0 C., with agitation (130 rpm), and analysed at 24 h. Culture viability was determined by total viable count (TVC) analysis on TSAT plates (see below) following serial dilution in quarter-strength Ringers solution. Fatty acid concentrations were determined by capillary gas chromatography (GC) (see below), while residual glucose levels were measured with blood glucose test strips (BM-Test 1-44; Boehringer Mannheim) used in conjunction with a ReflofluxS glucose meter (Boehringer Mannheim). A ‘sub-lethal’ effect is defined as significant inhibition of fatty acid catabolism, typically greater than 50% inhibition of pentadecanoic acid utilization, without concomitant reductions in Corynebacterium A viability (≦1 log10 CFU/ml reduction) or glucose utilization (≦10% reduction). Outside one or both of these defined boundaries, the effect may be described as ‘antimicrobial’, where ‘antimicrobial’ includes both bacteriostatic & bactericidal effects. Composition of Tween-supplemented Tryptone soya broth & agar (TSBT & TSAT) used for growth & maintenance of axillary bacterial (g/l): Tryptone soya broth (30.0); Yeast Extract (Beta Lab) (10.0); Tween 80™ (1.0); ± Agar (20.0). Composition of semi-synthetic medium used in in vitro system simulating fatty acid catabolism by corynebacteria A (g/l): KH2PO, (1.6);(NH4) 2HPO4(5.0); Na2SO4 (0.38); Yeast Nitrogen Base (Difco)(3.35); Yeast Extract (Beta Lab)(0.5); Tween 80™ (0.2); Triton X-100™ (0.2); MgCl2.6H20(0.5). Fatty acid levels in the flasks were determined by capillary GC analysis. Initially, 5.0 ml aliquots from each flask were transferred into universal tubes; an internal standard (lauric acid, 1.0 mg/ml final concentration) was added to each tube and the culture medium acidified (pH ˜2) by the addition of hydrochloric acid. Liquid-liquid extraction was then carried out using 2 vol (10 ml) ethyl acetate; organic and aqueous phases were resolved by centrifugation (2000 rpm, 3 min). ˜0.75 ml of each organic (upper) phase was then transferred to a sampling vial prior to analysis on a Perkin Elmer 8000 (Series 2) GC fitted with a 15 m ×0.32 mm (internal diameter) FFAP (nitroterephalic acid modified PEG/siloxane copolymer) fused silica capillary column (film thickness […]) (Quadrex). This column was attached to the split-splitless injector and flame ionisation detector (FID) of the GC; injector and detector temperatures were each 300° C. Carrier gas for the column was helium (6 psi), while hydrogen (17 psi) and air (23 psi) supplied the FID. The temperature programme for fatty acid analysis was 80° C.(2 min); 80-250° C. (20° C./min); 250° C. (5 min). Sample size for injection was 0.5-1.0 μl . Fatty acid levels in the flasks were quantified by comparison of peak areas with known levels of both internal (lauric acid) and externally-run (pentadecanoic acid) standards.

PPARα ligand activity in reporter gene assay (FIG. 2) (PPARα): is a ligand for PPARα
SMILES: CC(C)=CCC/C(=C/CC/C(C)=C/CC/C(C)=C/Cc1cc(O)cc(C)c1O)C(=O)O [Sargahydroquinoic acid]
effect on decorin production (FIG. 1) (decorin): enhances decorin production | Glucose Utilisation ([1]; 0.05 g/l): 100% | Pentadecanoic Acid Utilisation ([1]; 0.05 g/l): 99% | TVC ([1]; 0.05 g/l): 8.67 log10 CFU/ml | Glucose Utilisation ([1]; 0.1 g/l, * sub-lethal): 100* % | Pentadecanoic Acid Utilisation ([1]; 0.1 g/l, * sub-lethal): 58* % | TVC ([1]; 0.1 g/l, * sub-lethal): 8.83* log10 CFU/ml | Glucose Utilisation ([1]; 0.25 g/l, * sub-lethal): >90* % | Pentadecanoic Acid Utilisation ([1]; 0.25 g/l, * sub-lethal): 15* % | TVC ([1]; 0.25 g/l, * sub-lethal): 7.93* log10 CFU/ml | Glucose Utilisation ([1]; 0.5 g/l, * sub-lethal): 100* % | Pentadecanoic Acid Utilisation ([1]; 0.5 g/l, * sub-lethal): 19* % | TVC ([1]; 0.5 g/l, * sub-lethal): 7.85* log10 CFU/ml | Glucose Utilisation ([1]; 1.0 g/l, antimicrobial effect): >90% | Pentadecanoic Acid Utilisation ([1]; 1.0 g/l, antimicrobial effect): 5% | TVC ([1]; 1.0 g/l, antimicrobial effect): 7.3 log10 CFU/ml | Glucose Utilisation ([1]; 2.5 g/l, antimicrobial effect): 7% | Pentadecanoic Acid Utilisation ([1]; 2.5 g/l, antimicrobial effect): 25% | TVC ([1]; 2.5 g/l, antimicrobial effect): <3.0 log10 CFU/ml | inhibition at 50 µg/mL ([1]; Corynebacterium, NCIMB40928, 0.05 g/l, in parentheses = not significant): 1% | inhibition at 100 µg/mL ([1]; Corynebacterium, NCIMB40928, 0.1 g/l, * sub-lethal): 42% | inhibition at 250 µg/mL ([1]; Corynebacterium, NCIMB40928, 0.25 g/l, * sub-lethal): 85% | inhibition at 500 µg/mL ([1]; Corynebacterium, NCIMB40928, 0.5 g/l, * sub-lethal): 81% | inhibition at 1000 µg/mL ([1]; Corynebacterium, NCIMB40928, 1.0 g/l, antimicrobial effect): 95% | inhibition at 2500 µg/mL ([1]; Corynebacterium, NCIMB40928, 2.5 g/l, antimicrobial effect): 75%
